Data published in patent US20190060340A1, “NOVEL AMINOGLYCOSIDES AND USES THEREOF IN THE TREATMENT OF GENETIC DISORDERS” (Technion Research & Development Foundation Limited, priority 2007, published 2019).
Values after ≈ are worked out from the molar mass of the structure shown. Read-outs that look alike come from different tables or passages of the source.

Columns and labels:
[1] = tested on: original p2Luc plasmid containing a TGA C nonsense mutation; assay: Dual luciferase in vitro transcription/translation assay; assay type: biochemical; details: for Conc. (μM) at which maximum suppression level was achieved: dual luciferase in vitro system, all constructs of Table 21; for Maximum in vitro suppression (%) UGAC: p2luc
Excerpt: DNA fragments derived from the subsequent genes, including the tested stop mutation or the corresponding wild-type codon, and four upstream and downstream flanking codons (except for p.R3X constructs, in which there are only two upstream PCDH15-flanking codons) were cloned into p2Luc plasmid between renilla and firefly luciferase genes as described previously. The formed plasmids, as well as the original p2Luc plasmid containing a TGA C nonsense mutation, were transcribed and translated in vitro and the stop codon suppression efficiency was calculated as described previously.
For the dual luciferase in vitro transcription/translation assay, DNA fragments derived from PCDH15, CFTR, Dystrophin and IDUA cDNAs, including the tested stop mutation or the corresponding wild-type codon, and four upstream and downstream flanking codons (except for p.R3X constructs, in which there are only two upstream PCDH15-flanking codons) were created by annealing the couples of complementary oligonucleotides presented above.
Fragments were inserted into the SalI and SacI restriction sites of the p2Luc plasmid between renilla and firefly luciferase genes. The afforded plasmids, as well as the original p2Luc plasmid containing a TGA C nonsense mutation, were transcribed and translated using the TNT Reticulocyte Lysate Quick Coupled Transcription/Translation System (Promega™). Each transcription/translation reaction (10 μl, total volume) contained 8 μl TNT T7 Quick Master Mix, 0.2 μl methionine (1 mM), 0.8 μl DNA template (2 μg/μl), 1 μl of either water (blank) or 1 μl solution of increasing concentrations of the tested aminoglycosides in water. Luciferase activity was determined following 90 minutes incubation at 30° C. using the Dual Luciferase Reporter Assay System (Promega™). The total luminescence produced by each one of the proteins was measured separately using the FLx800 multidetection plate reader (Bio-Tek) and the stop codon suppression efficiency was calculated as described previously. The results are averages of at least three independent experiments.

[2] = tested on: Bacillus Subtilis ATCC 6633; assay: Antibacterial activity, MIC by double-microdilution method; assay type: cell-based; details: ATCC 6633; for MIC: Bacillus subtilis, ATCC6633, read-out: MIC B. Subtilis
Protocol: (§1) In order to compare the observed aminoglycoside-induced stop codon read-through activity in mammalian cells to antibacterial activity thereof, Compounds 1-9 were further investigated as antibacterial agents against both Gram-negative (E. coli) and Gram-positive (Bacillus subtilis) bacteria, and the minimal inhibitory concentration (MIC) values were determined by using a microdilution assay with paromomycin and gentamicin as controls, and the results are presented in Table 18 hereinabove.
(§2) The bacterial strains used were Escherichia coli ATCC 25922, and Bacillus Subtilis ATCC 6633. […] All the experiments were performed in triplicates and analogous results were obtained in two to four different experiments.

[3] = tested on: Escherichia coli ATCC 25922; assay: as above; assay type: cell-based; details: ATCC 25922; for MIC: Escherichia coli, ATCC25922, read-out: MIC E. coli
Protocol: as §1, §2

[4] = tested on: HEK-293 (human embryonic kidney); assay: Cell toxicity assay (XTT cell proliferation); assay type: cell-based; details: 48 hours
Protocol: (§3) After 1 day the medium was changed to medium without streptomycin and different concentrations of the tested compounds were added. After 48 hours a cell proliferation assay (XTT based colorimetric assay, Biological Industries) was performed, using the 5 hours incubation protocol, according to the manufacturer's instructions. Optical density (OD) was read using an Elisa plate reader. Cell viability was calculated as the ratio between the number of living cells in cultures grown in the presence of the tested compounds, versus the corresponding cell cultures which were grown without the tested compounds.

[5] = tested on: MDCK (canine kidney); assay: Cell toxicity assay (XTT cell proliferation); assay type: cell-based; details: 48 hours
Protocol: as §3

[6] = tested on: COS-7 (monkey kidney); assay: Cell toxicity assay (XTT cell proliferation); assay type: cell-based; details: 48 hours
Protocol: as §3

[7] = tested on: UGA C stop codon (p2LUC plasmid) in COS-7 cells; assay: Ex vivo suppression, p2LUC dual luciferase reporter plasmid in COS-7 cells; assay type: cell-based, monkey; details: 24 hours incubation
Protocol: Recent studies on enhanced production of functional proteins from nonsense codon-containing genes by promoter-activating agents support this presumption. To test this possibility, Compound 3 along with paromomycin and gentamicin, were evaluated for the UGA C stop codon read-through activity in cultured cells using a dual luciferase reporter system.
Suppression of nonsense mutations by Compounds 1-9 was tested ex vivo using a dual luciferase reporter plasmid. The p2LUC plasmid harboring the UGAC mutation was transfected to COS-7 cells with Lipofectamine 2000 (Invitrogen) and addition of tested compounds was performed after 15 hours. Luciferase activity was determined after 24 hours of incubation, using the Dual Luciferase Reporter Assay System (Promega) and stop codon readthrough was calculated as described previously.

[8] = tested on: Escherichia coli (R477-100); assay: Antibacterial activity, MIC; assay type: cell-based; details: for MIC: Escherichia coli, read-out: minimal inhibitory concentration (MIC)
[9] = tested on: prokaryotic translation; assay: Inhibition of prokaryotic translation; assay type: biochemical; details: for preference for inhibiting translation in prokaryotes versus eukaryotes: from IC50 values
[10] = Cell toxicity assay (XTT cell proliferation); assay type: cell-based
Protocol: as §3

[11] = Acute toxicity in mice; assay type: in vivo
[12] = tested on: human cytoplasmic A site olygonucleotide model duplexes; assay: UV melting of A site oligonucleotide model duplexes; assay type: binding
Excerpt: FIG. 7 presents the UV melting profiles observed for the human cytoplasmic A site olygonucleotide model duplexes in the absence of any drug (“No Drug” curve in FIG. 7) and in complex with ribostamycin (“Ribostamycin” curve in FIG. 7), Compound 3 (“NB30” curve in FIG. 7) and Compound 37 (“NB54” curve in FIG. 7) complexes at a drug/duplex ratio of 5:1;

[13] = Cell toxicity of Compound 37; assay type: cell-based
[14] = tested on: R3X nonsense mutation of the PCDH15 gene in COS-7 cells; assay: Ex vivo readthrough assay, p2luc-R3X dual luciferase reporter plasmid in COS-7 cells; assay type: cell-based, monkey
Protocol: For the, suppression of nonsense mutations by novel compounds was tested ex vivo using a dual luciferase reporter plasmid ex vivo readthrough assay. To generate the p2luc plasmid harboring the R3X nonsense mutation of the PCDH15 gene, the following oligonucleotides: 5′-[…]-3′ (SEQ ID NO: 21) and 5′-[…]-3′ (SEQ ID NO: 22) were annealed to each other and inserted into to polylinker sequence of the p2luc vector. The reporter plasmid p2luc-R3X was transfected to cos-7 cells with Lipofectamine 2000 (Invitrogen) and addition of tested compounds was performed 5 hours post transfection. Luciferase activity was determined after 24 hours of incubation, using the Dual Luciferase Reporter Assay System (Promega) and stop codon readthrough was calculated as described previously.

[15] = tested on: TGA stop codon; assay: Preliminary tests for in vitro readthrough activity of the TGA stop codon; assay type: biochemical
[16] = available toxicity data on aminoglycosides; unit inferred; cited from earlier work

| Compound | Conc. (μM) at which maximum suppression level was achieved [1] | Maximum in vitro suppression (%) UGAC [1] | ex-vivo suppression of nonsense mutation (read-through activity), FIG. 4 [7] | preference for inhibiting translation in prokaryotes versus eukaryotes [9] | MIC [2] | MIC [3] | MIC [8] | efficacy of inhibiting prokaryotic ribosome relative to gentamicin and paromomycin [9] | other results |
| --- | --- | --- | --- | --- | --- | --- | --- | --- | --- |
| gentamicin [reference compound] | 46 µM | 17.7 ± 2.9% | less efficient than either paromomycin or Compound 3 | about tree order of magnitude | – | – | – | – | MIC B. Subtilis [2]: <0.5 µg/mL; MIC E. coli [3]: 4 µg/mL; LC50 HEK293 [4]: 700 ± 80 µg/mL; LC50 MDCK [5]: 510 ± 70 µg/mL; LC50 COS-7 [6]: 490 ± 60 µg/mL; minimal inhibitory concentration (MIC) ([8]; Escherichia coli (R477-100)): 6 µM |
| NC[C@H]1O[C@@H](O[C@@H]2[C@@H](O)[C@H](N)C[C@H](N)[C@H]2O[C@H]2O[C@H](CO)[C@@H](O)[C@H](O)[C@H]2N)[C@H](O)[C@@H]1O [Compound 3] | 107 µM | 4.8 ± 0.8% | superior to that of paromomycin and gentamicin at all the tested concentrations | about two-order of magnitude | 48 µg/mL (≈ 106 µM) | > 512 µg/mL | 790 µM (≈ 359 µg/mL) | significantly lower | CC50 at 48 h ([10]; dog, MDCK cells, 48 hours, read-out: LC50 MDCK): 7530 ± 1210 µg/mL (≈ 16600 µM); CC50 at 48 h ([10]; human, HEK-293 cells, 48 hours, read-out: LC50 HEK293): 4820 ± 920 µg/mL (≈ 10600 µM); CC50 at 48 h ([10]; monkey, COS-7 cells, 48 hours, read-out: LC50 COS-7): 7030 ± 1850 µg/mL (≈ 15500 µM) |
| NCC[C@H](O)C(=O)N[C@@H]1CC(N)[C@@H](O[C@H]2OC(CO)[C@@H](O)C(O)C2N)C(O[C@@H]2O[C@H](CN)C(O)C2O)C1O (some centres unmarked) [Compound 37] | 46 µM | 18.4 ± 1.6% | – | about two-order of magnitude | – | – | 384 µM (≈ 213 µg/mL) | significantly lower | acute toxicity in mice in comparison to paromomycin and gentamicin [11]: significantly reduced; affinity to the cytoplasmic A site versus Compound 3 [12]: greater affinity; cell toxicity in comparison to paromomycin and gentamicin [13]: significantly reduced; maximum suppression level of the R3X nonsense mutation [14]: 5.25%; in vitro readthrough activity of the TGA stop codon vs Compound 3 and paromomycin [15]: significantly higher stop codon read-through activity |
| NC[C@@H]1O[C@H](O[C@H]2[C@@H](O)[C@H](O[C@@H]3[C@@H](O)[C@H](N)C[C@H](N)[C@H]3O[C@H]3O[C@H](CO)[C@@H](O)[C@H](O)[C@H]3N)O[C@@H]2CO)[C@H](N)[C@@H](O)[C@@H]1O [paromomycin, reference compound] | 42 µM | 7.8 ± 2.2% | – | about tree order of magnitude | 8 µg/mL (≈ 13 µM) | 12 µg/mL (≈ 19.5 µM) | 22 µM (≈ 13.5 µg/mL) | – | LD50 [16]: 160 mg/kg; CC50 at 48 h ([10]; dog): 1000 ± 60 µg/mL (≈ 1620 µM); CC50 at 48 h ([10]; human): 770 ± 140 µg/mL (≈ 1250 µM); CC50 at 48 h ([10]; monkey): 900 ± 100 µg/mL (≈ 1460 µM) |
